Laboratory results from patent US20190307820A1, “COMPOSITIONS AND METHODS OF USING STAT1/3 INHIBITORS WITH ONCOLYTIC HERPES VIRUS” (priority 2016, published 2019).
pIC50: −log10 of the molar value.

Key:
pSTAT1 (Tyr701) = test: Western blot of STAT 1 / pSTAT1 (Tyr701) in BV2 microglia cells; format: cell-based, mouse
Experimental: BV2 cells were pre-treated with vehicle or C16 (1 μM) for 2 hours and then incubated with vehicle or oHSV-1 (G207) at an MOI of 1 or oHSV-1 and C16 combination for 24 hours. Total protein was harvested and subjected to western blot assay. β-actin expression was used for loading control (means±SE).
BV2 cells were treated with either vehicle or Lps (1 μg/ml) or Lps (1 μg/ml) with C16 (1 μM) for 24 hours. Total protein was harvested and subjected to western blot assay. β-actin expression was used for loading control (means±SE).
Total protein was harvested with sample buffer (125 mM Tris-HCL, 50% Glycerol, […] and 5% 2-mercaptoethanol) and boiled for 5 minutes. Protein samples were subjected to SDS-PAGE (8% gel), transferred to nitrocellulose membranes and blocked in 5% nonfat milk (Bio Rad) in TBS-Tween 20 (TBS-T) for 1 hour at room temperature. The membranes were then incubated with primary antibody against β-actin at 1:1000 (Cell Signaling, Danvers, Mass.) or anti-STAT1 antibody at 1:1000 (Cell Signaling, Danvers, Mass.) or anti-STAT3 antibody at 1:1000 (Cell Signaling, Danvers, Mass.) or anti-phospho STAT1 antibody (Tyr701) at 1:1000 (Cell Signaling, Danvers, Mass.) or anti-phospho STAT3 antibody (Tyr705) at 1:1500 (Cell Signaling, Danvers, Mass.) or anti-phosphor-eIF2a antibody (ser51) at 1:1000 (Cell Signaling, Danvers, Mass.) or anti-ICP27 antibody at 1:1000 (Abcam, Cambridge, Mass.) or anti-ICP4 antibody at 1:750 (Abcam, Cambridge, Mass.) for overnight at 4° C. The membranes were washed the next day with TBS-T three times and incubated with corresponding secondary antibody at 1:3000 (Perkim Elmer, Boston, Mass.), for 1 hour at room temperature. Membranes were washed with TBS-T three times before visualization using ECL reagent (Perkim Elmer, Boston, Mass.) and VersaDoc imaging system (Bio-Rad). Band density was measured by using ImageJ software (NIH, Bethesda, Md.).

U373 cells = test: MTT cytotoxicity assay, U373 cells; format: cell-based; details: Homo sapiens, U373 MG, 72 hours, read-out: Inhibitory concentration 50% (IC50)
Experimental: (§1) FIGS. 1A-1B are graphs that show an anti-tumor effect of nifuroxazide. (FIG. 1A) Cells were treated with indicated concentration of nifuroxazide for 72 hours. Cytotoxicity was measured by using MTT assay. (FIG. 1B) Subcutaneously U87 tumor bearing mice were peritoneally injected with indicated doses of nifuroxazide. Tumor size was measured using calipers at day 7 post nifuroxazide treatment.
(§2) In this example, the antitumor effect of nifuroxazide is evaluated in different tumor cells. Cells were treated with nifuroxazide for 72 hours (FIG. 1A). […] To verify the anti-tumor efficacy of nifuroxazide in vivo, animals with subcutaneous U87 tumor implants were injected in the peritoneum with vehicle, 1 mg/kg nifuroxazide and 50 mg/kg nifuroxazide. […] Tumor volume was reduced around 25% and 60% after 7 days treatment with 1 mg/kg nifuroxazide and 50 mg/kg nifuroxazide respectively (FIG. 1B).
(§3) Cells were seeded in a 96-well plate at a density of 1×104 (U87). After overnight incubation, cells were treated with only vehicle or indicated MOI of virus or indicated concentration of drugs or reagents. After 2 to 3 days of treatment cell viability was measured by MTT assay (Sigma, Canada) according to the manufacturer's instruction. […] After overnight incubation with lysis buffer, cell viability was measured at 595 nm using a plate reader (Envision 2103 Multilabel reader, Perkin Elmer).

LnCap cells = test: MTT cytotoxicity assay, LnCap cells; format: cell-based; details: Homo sapiens, 72 hours, read-out: Inhibitory concentration 50% (IC50)
Experimental: as §1, §2, §3

subcutaneous U87 tumor = test: Subcutaneous U87 tumor bearing mice, tumor size after nifuroxazide; format: in vivo; details: injected in the peritoneum, after 7 days treatment
Experimental: as §1, §2

[1] = test system: oHSV-1 (HrR3) in 9L cells; test: oHSV-1 (HrR3) replication in 9L cells, titrated in vero cells; format: cell-based, HSV-1; details: HrR3 MOI-0.1, 48 hours
Experimental: FIGS. 2A-2B contain charts that show the effect of nifuroxazide on replication of oHSV-1. (FIG. 2A) Indicated cells were infected with HrR3 viruses at MOI-0.1. Viruses were harvested at 48 hours post-infected and titrated in vero cells. Data are presented as mean SD, *P<0.05 vs corresponding vehicle treatment. (FIG. 2B) U87 or glio cells were treated with HrR3 at a MOI of 1 and indicated concentration of nifuroxazide for 48 hours. Total DNA was extracted and subjected to qPCR to detect HSV-1 using ICP27 primer. nifuroxazide mediated oHSV-1% increase was represented in the figure.
In this example, the effect of nifuroxazide on oHSV-1 anti-tumor efficacy was evaluated. oHSV-1 infected treated glioma cells were incubated with low concentration of nifuroxazide. Replication increased 27- and 40-fold with 0.5 μM nifuroxazide and 10 μM nifuroxazide treated U87 cells respectively. Similarly, virus replication increased 0.8- and 4.7-fold virus in 9L cells treated with 0.5 μM nifuroxazide and 10 μM nifuroxazide respectively (FIG. 2A).

BTUC cells = test: MTT cytotoxicity assay, BTUC cells; format: cell-based; details: 72 hours, read-out: Inhibitory concentration 50% (IC50)
Experimental: as §1, §2, §3

MCF7 cells = test: MTT cytotoxicity assay, MCF7 cells; format: cell-based; details: Homo sapiens, 72 hours, read-out: Inhibitory concentration 50% (IC50)
Experimental: as §1, §2, §3

SMILES	upregulation of pSTAT1 (Tyr701) induced by oHSV-1 (pSTAT1 (Tyr701); C16 1 μM, G207 MOI of 1, 24 hours)	expression level of STAT 1 (pSTAT1 (Tyr701); G207 infected microglial cells)	STAT 1 phosphorylation, LPS treated (pSTAT1 (Tyr701); Lps 1 μg/ml, C16 1 μM, 24 hours)	pIC50 (U373 cells)	pIC50 (LnCap cells)	Tumor volume was reduced (subcutaneous U87 tumor; 1 mg/kg nifuroxazide)	Tumor volume was reduced (subcutaneous U87 tumor; 50 mg/kg nifuroxazide) [%]	virus replication increased ([1]; 0.5 μM nifuroxazide) [fold]	virus replication increased ([1]; 10 μM nifuroxazide) [fold]	pIC50 (BTUC cells)	pIC50 (MCF7 cells)
O=C1Nc2ccc3ncsc3c2/C1=C/c1c[nH]cn1 [C16, 6,8-Dihydro-8-(1H-imidazol-5-ylmethylene)-7H-pyrrolo[2,3-g]benzothiazol-7-one]	significantly suppress the upregulation	reduced after C16 treatment	inhibition in STAT 1/3 phosphorylation								
O=C(N/N=C/c1ccc([N+](=O)[O-])o1)c1ccc(O)cc1 [nifuroxazide, Benzoic acid, 4-hydroxy-, [(5-nitro-2-furanyl)metylene]hydrazide]				~4.64	~5.30	around 25%	~60	0.8	4.7	~4.82	~4.70
